Key:
ToxT [1] = target: T1, ToxT (Vibrio cholerae, UniProt P0C6D6); assay type: binding; conditions: 1.0 µM ToxT pre-incubated with TB (40 mM) 20 min, 1 nM PtcpA DNA, pH 7.5
T1 construct: gene tcpN; 6xHis fusion from pHIS-Tev plasmid, expressed in E. coli BL21(DE3), Ni-agarose purified

ToxT [2] = target: T1, ToxT; experiment: intrinsic tryptophan fluorescence quenching, logarithmic plot; assay type: binding
[3] = target: T2, ToxT (His6/NBP-ToxT fusion) (Vibrio cholerae N16961?) (UniProt P0C6D6); experiment: competition; conditions: 10 mM Tris-HCl pH 7.5, 100 mM KCl, 1 mM EDTA, 1 mM DTT, 200 µg/mL BSA, 10% glycerol, […] (temperature not stated)
T2 sequence: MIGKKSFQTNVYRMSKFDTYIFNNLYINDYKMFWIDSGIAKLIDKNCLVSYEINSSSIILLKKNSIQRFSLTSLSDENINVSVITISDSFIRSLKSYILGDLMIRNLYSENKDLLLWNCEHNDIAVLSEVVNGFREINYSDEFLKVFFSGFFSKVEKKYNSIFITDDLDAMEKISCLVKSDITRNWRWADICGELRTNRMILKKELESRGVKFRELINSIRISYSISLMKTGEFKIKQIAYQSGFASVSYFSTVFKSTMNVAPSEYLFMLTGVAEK

For `CCCC(=O)OCC(COC(=O)CCC)OC(=O)CCC` [TB, tributyrate], the “inhibition of DNA binding” value (ToxT [1]) was “tributyrate (TB), was used, and it showed no inhibition on ToxT-DNA binding”.
With `CCCC(=O)O` [SB, sodium butyrate] the Kd (ToxT [2]) was 2600 ± 30 µM.
“ATTGCTGAGCTAAAGGGGCTGGAAATTCAATGTCATCAGGCTGTTGCCAAGTGACGCGATTCAGTGCGGCTAAATAGAGCGAAGTTAATTGATTCATACTATTATTCAATTTGACGCTTTACCCGATTACCCTAGCTACCTGCAATACCA (double strand) [nonspecific competitor DNA]” was tested, and the binding [3] was “no binding”.

— paper PMC12108080, “Sodium butyrate inhibits the expression of virulence factors in Vibrio cholerae by targeting ToxT protein” (mSphere, 2025)
